Patent publication US20240139167A1, “LYSOSOME-ASSOCIATED MEMBRANE PROTEIN TARGETING COMPOUNDS AND USES THEREOF” (HADASIT MEDICAL RESEARCH SERVICES AND DEVELOPMENT LTD., priority 2021, published 2024)

How the values were obtained:
[1] = molecular target: T1, deglycosylated luminal LAMP1 domain (Homo sapiens, UniProt P11279); assay: SPR with chemically deglycosylated LAMP1; assay type: binding
T1 construct: repeated the SPR experiments with a chemically deglycosylated luminal LAMP1 domain
T1 sequence (P11279 29-382): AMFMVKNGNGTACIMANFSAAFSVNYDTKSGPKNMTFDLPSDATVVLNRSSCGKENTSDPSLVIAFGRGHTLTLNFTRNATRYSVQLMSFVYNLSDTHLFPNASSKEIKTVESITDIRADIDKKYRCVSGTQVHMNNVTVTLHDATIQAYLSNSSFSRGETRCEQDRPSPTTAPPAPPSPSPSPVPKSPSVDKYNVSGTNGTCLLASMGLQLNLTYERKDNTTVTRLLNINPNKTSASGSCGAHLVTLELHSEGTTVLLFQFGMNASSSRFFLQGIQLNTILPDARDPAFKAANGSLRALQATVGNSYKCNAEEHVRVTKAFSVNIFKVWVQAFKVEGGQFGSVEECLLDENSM
Experimental: The inventors have investigated the mechanism of action of 144DG11. To that end, the inventors first decided to determine its molecular target. Nematic protein organization technique (NPOT, Inoviem, Ltd.) was applied to homogenates of APBD patient fibroblasts. The NPOT analysis has discovered protein hetero assemblies uniquely generated around 144DG11 only when it was added to the cell homogenates (FIG. 5A). The next step in this analysis has identified the interactome of protein targets interacting with 144DG11 in APBD patients' fibroblasts. […] Moreover, the inventors have tested by cellular thermal shift assay the specific interaction of 144DG11 with 6 of the 8 targets discovered by NPOT. […] This finding relates to a novel pathogenic hypothesis connecting cellular glycogen overload with glycogen trafficking to lysosomes via Starch Binding Domain containing Protein 1. To validate 144DG11's interaction with LAMP1, the inventors have used surface plasmon resonance (SPR) technology. […] The inventors hypothesized that this slow rate of association could be explained by inhibited diffusion of 144DG11 due to the bulky oligosaccharides at the glycosylation sites. […] In the search for a putative binding site for Compound 1 in LAMP1, the inventors have analyzed the N- and C-terminal subdomains of its luminal domain (residues A29-R195 and S217-D378, respectively), which have a similar topology. […]

[2] = tested on: HC and PD patient fibroblasts; assay: Seahorse ATP rate assay in Pompe disease fibroblasts; assay type: cell-based, human
Experimental: FIG. 17 includes a vertical bar graph showing glycolytic (1) and mitochondrial (2) ATP production determined by Agilent's Seahorse machine and ATP rate assay kit. HC and PD patient fibroblasts were serum/glucose-starved for 48 h and then full medium was replenished for 24 h without (untreated), or with (chronic) 50 μM 144DG11. Acute, 50 μM 144DG11 was added on assay for 20 min after 24 h of serum/glucose replenishment. Readings were normalized to cell number as determined by Crystal Violet staining. Shown are mean and SD values based on n=6 repeats. In acutely 144DG11-treated PD fibroblasts, glycolytic and total ATP production was increased, as compared to untreated PD cells (p<0.002, One Way ANOVA with Sidak's post-hoc correction for multiple comparisons).

COCCN(Cc1sccc1C)C(=O)c1cc(C)nc(O)c1 [Compound 1]
binding to deglycosylated LAMP1 [1]: did not bind | effect on ATP production ([2]; 24 h pre-treatment): not significant | overall ATP production ([2]; PD fibroblasts, 50 μM): increased | relative contribution of glycolytic ATP production at the expense of mitochondrial (OxPhos) ATP production ([2]; PD fibroblasts, 50 μM): increased | glycolytic and total ATP production ([2]; PD fibroblasts, acute 50 μM 20 min, p<0.002): increased
